Results taken from patent US8426407B2, “Preparation of 1-(substituted aryl)-5-trifluoromethyl-2-(1H)pyridone compounds and salts thereof and their applications” (Central South University, priority 2009, dated 2013).

What was measured:
NIH3T3 fibroblasts = assay: Inhibition test of compounds on NIH3T3 fibroblasts (MTT method); format: cell-based; conditions: for Multiple: multiple of activity versus fluorofenidone from IC50 values; for IC50: MTT, relative to fluorofenidone on a certain plate
Description: Inhibition Test of Compounds on NIH3T3 Fibroblasts
An MTT method is used and comprises steps of: culturing cells in DMEM culture medium including 5% calf serum and preparing the cells into cell suspension of 3×10^4/ml; inoculating in 96-well plate according to 100 μl/well; transferring new culture medium including compounds with different concentration, fluorofenidone and 1% calf serum after cells are adhered, wherein three repeated wells are provided for each concentration; respectively adding 100 μl of MTT solution in each well after 48 hours and 72 hours of administrating (the culture medium is prepared into 5 mg/ml and kept in dark after filtering), sucking out MTT after 4 hours; adding 150 μl of DMSO which is the dissolving liquid of MTT; after 10 min and MTT is completely dissolved, measuring OD value by ELISA reader; calculating IC50 values of fluorofenidone and measured compounds according to inhibition ratio; calculating multiple of activities of measured compounds and fluorofenidone according to IC50 values of fluorofenidone and measured compounds; and obtaining relative IC50 value of measured compounds according to multiple and IC50 value of fluorofenidone on a certain plate.

[1] = tested on: rat unilateral ureteral obstruction renal fibrosis model; assay: Rat unilateral ureteral obstruction renal fibrosis model; format: in vivo
Description: Observation of Treatment Effect of Compound 13 in a Rat Unilateral Ureteral Obstruction Renal Fibrosis Model
(1) Randomization: nine rats are divided into three groups at random, namely a normal group (n=3); a model group (n=3) and a treatment group (n=3) treated by compound 13 of 15 mg/kg; three rats are in a hutch; and the experimental animals are adaptively fed for two days. […]
HE stained slices of renal tissues are successively observed in fives fields of view of renal tubulointerstitium on upper left side, upper right side, lower left side, lower right side and middle portion by a low power lens and are evaluated according to eight indexes of renal interstitium lesion: renal tubular epithelial cell vacuolar degeneration, renal tubular ectasia, renal tubular atrophy, red cell cast, protein cast, interstitial edema, interstitial fibrosis and interstitial inflammatory cell infiltration; an average value is calculated as the index of renal tubulointerstitial lesion of the sample; and the evaluation standard is based on the reference of Radford M G Jr, Donadio J V Jr, Bergstralh E J, et al. Predicting renal outcome in IgA nephropathy. […]
Masson staining slices of renal tissues are observed in 20 fields of vision for each sample at random under 400X light microscope; percent of blue-stain collagens in the fields of vision is calculated; an average value is determined after semi-quantitative evaluation: no positive staining, 0; <25%, 1; 25-50%, 2; 50-75%, 3; >75%, 4; and the evaluation standard is based on references. […]

[2] = Mus musculus, NIH3T3, 48 h, 48 hours after administration
[3] = Mus musculus, NIH3T3, 72 h, 72 hours after administration

Row | SMILES | Multiple (NIH3T3 fibroblasts; 48 hours) | Multiple (NIH3T3 fibroblasts; 72 hours) | IC50 (NIH3T3 fibroblasts; [2]) | IC50 (NIH3T3 fibroblasts; [3]) | Treatment effect on renal fibrosis (conclusion) ([1]; 15 mg/kg) | Score (X ± S), renal interstitium collagens of left kidneys, MASSON staining ([1]; 15 mg/kg intragastric once per day for 12 days, SD rats n=3, model group 2.45 ± 0.38, normal group 0.25 ± 0.00, p < 0.01 vs model) | Score (X ± S), index of renal tubulointerstitial lesions of obstruction kidneys, HE staining ([1]; 15 mg/kg intragastric once per day for 12 days, SD rats n=3, model group 9.00 ± 1.00, normal group 0.33 ± 0.12, p < 0.01 vs model) | IC50 (NIH3T3 fibroblasts; 48 hours after administration) | IC50 (NIH3T3 fibroblasts; 72 hours after administration)
1 | O=c1ccc(C(F)(F)F)cn1-c1ccc(NCCN2CCN(CCO)CC2)cc1Cl [Compound 13, 1-(2-chloro-4-((2-(4-(2-hydroxyethyl)piperazin-1-yl)ethyl)amino)-phenyl)-5-(trifluoromethyl)pyridin-2(1H)-one] | 44.14 | 57.20 | 100 µM | 62 µM | can effectively treat renal fibrosis | 1.52 ± 0.16^⋆⋆** | 7.00 ± 0.35^⋆⋆** | – | –
2 | O=c1ccc(C(F)(F)F)cn1-c1ccc(NCCO)cc1Cl [Compound 5, 1-(2-chloro-4-((2-hydroxyethyl)amino)phenyl)-5-(trifluoromethyl)pyridin-2(1H)-one] | 3.21 | 5.57 | 1380 µM | 632 µM | – | – | – | – | –
3 | O=c1ccc(C(F)(F)F)cn1-c1ccc(NCCN2CCCCC2)cc1Cl [Compound 10, 1-(2-chloro-4-((2-(piperidyl-1-yl)ethyl)amino)phenyl)-5-(trifluoromethyl)pyridin-2(1H)-one] | 20.73 | 56.50 | 214 µM | 62 µM | – | – | – | – | –
4 | CN1CCN(CCNc2ccc(-n3cc(C(F)(F)F)ccc3=O)c(Cl)c2)CC1 [Compound 12, 1-(2-chloro-4-((2-(4-methylpiperazin-1-yl)ethyl)amino)phenyl)-5-(trifluoromethyl)pyridin-2(1H)-one] | 13.42 | 33.33 | 330 µM | 106 µM | – | – | – | – | –
5 | O=c1ccc(C(F)(F)F)cn1-c1ccc(NCCCN2CCCCC2)cc1Cl [Compound 3, 1-(2-chloro-4-((3-piperidin-1-yl)propylamino)phenyl)-5-(trifluoromethyl)pyridin-2(1H)-one] | 18.60 | 54.0 | – | – | – | – | – | 238 µM | 65 µM
6 | O=c1ccc(C(F)(F)F)cn1-c1ccc(N(CCO)CCO)cc1Cl [Compound 6, 1-(4-(N,N-(2-hydroxyethyl)amino)-2-chlorophenyl)-5-(trifluoromethyl)pyridin-2(1H)-one] | 6.91 | 6.00 | 641 µM | 587 µM | – | – | – | – | –
7 | CCCCOCCCNc1ccc(-n2cc(C(F)(F)F)ccc2=O)c(Cl)c1 [Compound 4, 1-(4-((3-butoxypropyl)amino)-2-chlorophenyl)-5-(trifluoromethyl) pyridin-2(1H)-one] | 6.31 | 11.31 | 702 µM | 311 µM | – | – | – | – | –
8 | CN1CCN(CCCNc2ccc(-n3cc(C(F)(F)F)ccc3=O)c(Cl)c2)CC1 [Compound 1, 1-(2-chloro-4-((3-(4-methylpiperazin-1-yl)propyl)amino)phenyl)-5-(trifluoromethyl)pyridin-2(1H)-one] | 15.50 | 21.60 | 286 µM | 163 µM | – | – | – | – | –
9 | O=c1ccc(C(F)(F)F)cn1-c1ccc(NCCCN2CCOCC2)cc1Cl [Compound 2, 1-(2-chloro-4-((3-morpholinylpropyl)amino)phenyl)-5-(trifluoromethyl)pyridin-2(1H)-one] | 18.36 | 21.87 | 241 µM | 161 µM | – | – | – | – | –
10 | O=c1ccc(C(F)(F)F)cn1-c1ccc(NCCN2CCOCC2)cc1Cl [Compound 11, 1-(2-chloro-4-((2-morpholinylethyl)amino)-phenyl)-5-(trifluoromethyl)pyridin-2(1H)-one] | 25.50 | 62.50 | 174 µM | 56 µM | – | – | – | – | –
11 | O=c1ccc(C(F)(F)F)cn1-c1ccc(NCCOCCO)cc1Cl [Compound 8, 1-(2-chloro-4-((2-(2-hydroxyethoxy)ethyl)amino)phenyl)-5-(trifluoromethyl)pyridin-2(1H)-one] | 9.09 | 10.59 | 487 µM | 332 µM | – | – | – | – | –
12 | Cl.O=c1ccc(C(F)(F)F)cn1-c1ccc(NCCCN2CCCCC2)cc1Cl [Compound 7, 1-(2-chloro-4-(((3-piperidin-1-yl)propyl)amino)phenyl)-5-(trifluoromethyl)pyridin-2(1H)-one hydrochloride] | 17.09 | 71.17 | 259 µM | 49 µM | – | – | – | – | –
